From US4229438A, “Nonapeptides” (Takeda Chemical Industries, Ltd., priority 1978, dated 1980) come the findings set out here.

In this test the test system is spleen cells of C3H/He mouse (23-26% albumin layer interface fraction). Kind of test: Determination of theta antigen induction activity (procedure analogous to Komuro et al). To be noted: C3H/He mouse spleen cell fraction in RPMI-1640, incubated with peptide at 37° C. for 2 hours; lysis with anti(theta) serum and guinea-pig complement. The test is classed as cell-based. As to the method: The theta antigen induction activity of the nonapeptide (I) is assayed by a procedure analogous to the procedure described in the article of Komuro et al [The Lancet, i, 740-743 (1973)]. The spleen is enucleated from a C3H/He mouse, 2-3 months old, and minced in a tissue culture fluid (RPMI-1640). The resulting spleen cell suspension is fractionated by discontinuous density gradient centrifugation using 10 to 35% bovine serum albumin. The cells migrating to the 23-26% albumin layer interface are collected and resuspended in RPMI-1640. To this cell suspension is added the peptide, the activity of which is to be determined, at a varying concentration and the mixture is incubated at 37° C. for 2 hours. If the peptide added be active, fresh theta antigen will appear on the cell surface. Therefore, the count of such cells is taken by lysing with an outbred mouse anti(theta) serum and guinea-pig complement. The theta-antigen induction activity is computed by means of the following equation. Theta-antigen induction activity(%)=(A-B/A)×100 where A is the count of theta antigen-negative cells in the absence of the test peptide and B is the count of theta antigen-negative cells when the test peptide has been added.

Residues, ends and D or L forms follow the SMILES beside them.

`C[C@@H](NC(=O)[C@@H]1CCC(=O)N1)C(=O)N[C@@H](CCCCN)C(=O)N[C@@H](CO)C(=O)N[C@@H](CCC(N)=O)C(=O)NCC(=O)NCC(=O)N[C@@H](CO)C(=O)N[C@@H](CC(N)=O)C(=O)O` [Example 1, pGlu-(D)-Ala-Lys-Ser-Gln-Gly-Gly-Ser-Asn-OH] (HELM PEPTIDE1{[Glp].[dA].K.S.Q.G.G.S.N}$$$$V2.0): the “The concentration required for showing at least 10% theta antigen induction activity” value was in the range of 1 to 10 ng/mL.

Turning to `C[C@H](NC(=O)[C@@H]1CCC(=O)N1)C(=O)N[C@@H](CCCCN)C(=O)N[C@@H](CO)C(=O)N[C@@H](CCC(N)=O)C(=O)NCC(=O)N[C@H](C)C(=O)N[C@@H](CO)C(=O)N[C@@H](CC(N)=O)C(=O)O` [Example 3, pGlu-Ala-Lys-Ser-Gln-Gly-(D)-Ala-Ser-Asn-OH] (HELM PEPTIDE1{[Glp].A.K.S.Q.G.[dA].S.N}$$$$V2.0), the “The concentration required for showing at least 10% theta antigen induction activity” value lay in the range of 1 to 10 ng/mL.

As for `C[C@H](NC(=O)[C@@H]1CCC(=O)N1)C(=O)N[C@@H](CCCCN)C(=O)N[C@@H](CO)C(=O)N[C@@H](CCC(N)=O)C(=O)N[C@H](C)C(=O)NCC(=O)N[C@@H](CO)C(=O)N[C@@H](CC(N)=O)C(=O)O` [Example 4, pGlu-Ala-Lys-Ser-Gln-(D)-Ala-Gly-Ser-Asn-OH] (HELM PEPTIDE1{[Glp].A.K.S.Q.[dA].G.S.N}$$$$V2.0), the “The concentration required for showing at least 10% theta antigen induction activity” value fell in the range of 0.1 to 1 ng/mL.
